14 compounds from patent publication US10703764B2, “Benzopiperazine compositions as BET bromodomain inhibitors” (FORMA Therapeutics, Inc., priority 2013, dated 2020) can be followed below.

The subject of assay [1] is MV4-11 cells. Kind of assay: Oncology cell growth assay (3-day proliferation, CellTiter-Glo). The class given is cell-based. Conditions: Homo sapiens, MV4-11, 72 h, AML cell line MV4-11, 72 hours, compounds grouped by IC50 range, read-out: MV4-11 IC50 (inhibition of proliferation, gIC50). The method in brief: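 Compounds were serially diluted 3-fold in DMSO, giving final well concentrations from 10 down to 0.0045 μM. MV4-11 cells were then seeded at 3000 cells/well in RPMI 1640 with 10% FBS and incubated 72 hours. CellTiter-Glo signal was measured and gIC50 obtained by four-parameter logistic regression.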
Background: ATP-based viability assays read luminescence as a measure of living cells.

Assay [2] has as its target T1, BRD4 BD1 (Homo sapiens, UniProt O60885).
T1 construct: made in house
Kind of assay: AlphaScreen binding assay, BRD4 Bromodomain 1. The method in brief: (§1)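 Compound dilution series were mixed with His-tagged BRD4 bromodomain and biotinylated tetra-acetylated H4 (1-21) peptide at pH 7.3 (BD1 and peptide at 50 nM, BD2 and peptide at 100 nM). Donor and acceptor beads were then added, and plates were equilibrated at least 1 h before reading. IC50 values were fitted with a four-parameter logistic model.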
(In general: Bead proximity is the source of the signal in Alpha formats.)

For assay [3], the target named is T2, BRD4 BD2 (Homo sapiens, UniProt O60885).
T2 construct: made in house
Kind of assay: AlphaScreen binding assay, BRD4 Bromodomain 2. In short, it runs like this:
as §1

In the case of `CC(=O)N1c2ccc(-c3cccc(S(=O)(=O)NCCO)c3)cc2N(C(=O)OC2CCOCC2)C[C@@H]1C` [Example I-1256], the figures for the IC50 in assay [1], in assay [2] and in assay [3] were 100 to 500 nM, 100 to 1000 nM and 50 to 500 nM, respectively.
As for `COc1ccc(-c2ccc3c(c2)N(C(=O)OC(C)C)C[C@H](C)N3C(C)=O)cc1NS(C)(=O)=O` [Example I-1142], the IC50 in assay [1] lay within 100 to 500 nM; in assay [2], 100 to 1000 nM; in assay [3], 50 to 500 nM.
For `CC(C)OC(=O)N1C[C@H](C)N(C(=O)C2CC2)c2ccc(-c3cnn(CC4CCC4)c3)cc21` [Example I-618], the results for the IC50 in assay [1], in assay [2] and in assay [3] were 100 to 500 nM, 1000 to 10000 nM and more than 500 nM, respectively.
Taken in the same sequence, the figures for `COC(=O)Nc1ccc(-c2ccc3c(c2)N(C(=O)c2ccco2)C[C@H](C)N3C(C)=O)cc1` [Example I-414] were 100 to 500 nM, 1000 to 10000 nM and less than 50 nM.
Take `CC(=O)N1c2ccc(-c3cnn(CC(F)F)c3)cc2N(C(=O)OC(C)C)C[C@@H]1C` [Example I-135, (S)-isopropyl 4-acetyl-7-(1-(2,2-difluoroethyl)-1H-pyrazol-4-yl)-3-methyl-3,4-dihydroquinoxaline-1(2H)-carboxylate]: the IC50 fell in the range of 100 to 500 nM in assay [1], 100 to 1000 nM in assay [2] and 50 to 500 nM in assay [3].
As to `CC(=O)N1c2ccc(-c3cnn(CCO)c3)cc2N(C(=O)OCC(F)(F)F)C[C@@H]1C` [Example I-82, (S)-2,2,2-trifluoroethyl 4-acetyl-7-(1-(2-hydroxyethyl)-1H-pyrazol-4-yl)-3-methyl-3,4-dihydroquinoxaline-1(2H)-carboxylate], the IC50 in assay [1] is more than 500 nM; in assay [2], more than 10000 nM; in assay [3], more than 500 nM.
As for `CC(=O)N1c2ccc(-c3ccc(N4CCOCC4)cc3)cc2N(C(=O)C2CC2)C[C@@H]1C` [Example I-1058], the IC50 was in the range of 100 to 500 nM in assay [1], 1000 to 10000 nM in assay [2] and 50 to 500 nM in assay [3].
Take `CC(=O)N1c2ccc(-c3cccc(S(=O)(=O)N(C)C)c3)cc2N(C(=O)c2ccco2)C[C@@H]1C` [Example I-845]: the values for the IC50 in assay [1], in assay [2] and in assay [3] were 100 to 500 nM, 100 to 1000 nM and 50 to 500 nM, respectively.
Taken in the same sequence, the figures for `CC(=O)N1c2cc(C#N)c(-c3cnn(C4CC4)c3)cc2N(C(=O)OC(C)C)C[C@@H]1C` [Example I-211, Isopropyl (S)-4-acetyl-6-cyano-7-(1-cyclopropyl-1H-pyrazol-4-yl)-3-methyl-3,4-dihydroquinoxaline-1(2H)-carboxylate] were more than 500 nM, 100 to 1000 nM and more than 500 nM.
Consider `CC(=O)N1c2ccc(-c3cnn(CCO)c3)cc2N(C(=O)OC2CCC(F)(F)CC2)C[C@@H]1C` [Example I-34, (S)-4,4-difluorocyclohexyl 4-acetyl-7-(1-(2-hydroxyethyl)-1H-pyrazol-4-yl)-3-methyl-3,4-dihydroquinoxaline-1(2H)-carboxylate], for which the IC50 in assay [1] was 100 to 500 nM; in assay [2] it was 100 to 1000 nM; in assay [3] it was 50 to 500 nM.
Taken in the same sequence, the figures for `CC(=O)N1c2ccc(-c3cnn(Cc4nonc4C)c3)cc2N(C(=O)OC(C)C)C[C@@H]1C` [Example I-677] were 100 to 500 nM, 100 to 1000 nM and 50 to 500 nM.
The like results for `CC(=O)N1c2ccc(-c3ccc(C(=O)O)cc3)cc2N(C(=O)c2ccco2)C[C@@H]1C` [Example I-799] were, in that order, more than 500 nM, 1000 to 10000 nM and 50 to 500 nM.
The like results for `CCS(=O)(=O)Nc1ccc(-c2ccc3c(c2)N(C(=O)OC(C)C)C[C@H](C)N3C(C)=O)cc1` [Example I-1138] were, in that order, 100 to 500 nM, 100 to 1000 nM and 50 to 500 nM.
Regarding `CC(=O)N1c2ccc(-c3cccc(N4CCCS4(=O)=O)c3)cc2N(C(=O)C2CC2)C[C@@H]1C` [Example I-1152], the IC50 in assay [1] fell in the range of 100 to 500 nM; in assay [2], 1000 to 10000 nM; in assay [3] it was 50 to 500 nM.
